# According to patent US12629376B2, “Composition for use in the treatment of ApoL1-associated disease” (RAMBAM MED-TECH LTD., priority 2020, dated 2026):
# How the values were obtained:
# [1] = tested on: ApoL1-G1-induced T-REx-293 stable cell line; assay: ApoL1-G1-induced cell viability assay (CellTiter-Glo); format: cell-based, human; details: for viability of ApoL1-G1 expressing cells: FIG. 1, 16 hours incubation, 0.08-10 μM, 1 ng/ml Doxycycline, luminescence live-cell count; for cell protective effect against ApoL1 toxicity: cell-based high throughput screening of 200,000 compounds, doxycycline-induced ApoL1-G1 T-REx-293 cells; for cell protective effect against ApoL1 toxicity / cell toxicity: 10 μM; for cell toxicity: high throughput screening, T-REx-293 cells
# Description: ApoL1-G1-induced T-REx-293 stable cell line was generated by introducing Flag-tagged human G1 ApoL1 variant DNA (with African genomic sequence background) into the pcDNA4/TO plasmid, which yield expression upon Doxycycline addition. Cells were cultured in DMEM (Gibco, 41965-039) supplemented with 10% FBS, 1% penicillin-streptomycin at 37° C.
# In order to estimate the effect of compounds 1, 3 and 7 on ApoL1-induced cells a cell viability assay was performed as following: cells were seeded at density 23K cells per well (96-well plate). Prior to seeding, wells were coated with Fibronectin (Biological industries, 03-090-1-05) for 1 hour at 37° C. On the following day, cells were switched to the same growth medium but containing 1 ng/ml Doxycycline (Sigma, D9891) with different concentrations of compounds 1, 3 or 7, for 16 hours. Then, cells were subjected to viability assay according to manufacturer's instructions, using CellTiter-Glo luminescent cell viability assay kit (Promega, G7570). The plate was read using Infinite 200 PRO for luminescence, which indicated live-cell count.
# Induction of ApoL1-G1 variant by doxycycline causes toxicity in T-REx-293 cell line. In order to identify potential inhibitors of ApoL1 toxicity, a cell-based high throughput screening of 200,000 chemical compounds was performed. Cells were incubated with a compound solution (at 10 μM concentration).
# T-REx-293 cells = assay: cell toxicity assay for anti-proliferative effect (Cell-Titer Glo); format: cell-based; details: FIG. 2, 10 μM, 16 hours
# Description: T-REx-293 cells were seeded at a density of 25K cells/well on fibronectin in 96-well plates and grown in DMEM with 10% FBS, 1% P/S medium. 24 hours post-seeding medium was changed to a fresh medium comprising the tested compounds (KS-1, KS-2, or KS-8) at a concentration of 5-10 μM. Non-treated cells were used as a negative control. After 16 hours one plate of the cells was taken for cell viability test using Cell-Titer Glo reagent (Promega). Cells on the other plate were imaged using Incucyte ZOOM system.
smiles,measurement,setting,value
Cc1c(C)n(Cc2ccc(Br)cc2)c(=O)n(Cc2ccc(Br)cc2)c1=O [Compound 1],viability of ApoL1-G1 expressing cells,[1],concentration dependent viability increase
same,cell protective effect against ApoL1 toxicity,[1],highest cell protective effect
same,cell toxicity,[1],without exhibiting a significant cell toxicity
O=c1c2ccccc2n(Cc2ccc(Cl)cc2)c(=O)n1Cc1cccs1 [KS-2],"cell count determined via luminescence signal (relative light units, RLU) versus non-treated cells",T-REx-293 cells,lower
O=c1c2ccccc2n(Cc2ccc(Cl)cc2)c(=O)n1C1CC=CC1 [KS-8],"cell count determined via luminescence signal (relative light units, RLU) versus non-treated cells",T-REx-293 cells,lower
COc1ccccc1C(=O)Nc1cccc(N2CCC(NC(C)c3cnn(-c4ccccc4)c3)CC2)c1 (stereo not drawn) [Compound 7],viability of ApoL1-G1 expressing cells,[1],concentration dependent viability increase
same,cell protective effect against ApoL1 toxicity,[1],highest cell protective effect
same,cell toxicity,[1],without exhibiting a significant cell toxicity
O=c1c2ccccc2n(Cc2ccncc2)c(=O)n1Cc1ccc(Cl)cc1 [KS-1],"cell count determined via luminescence signal (relative light units, RLU) versus non-treated cells",T-REx-293 cells,lower
O=c1c2ccccc2n(Cc2ccc(Cl)cc2)c(=O)n1Cc1ccc(Cl)cc1 [Compound 3],viability of ApoL1-G1 expressing cells,[1],concentration dependent viability increase
same,cell protective effect against ApoL1 toxicity,[1],highest cell protective effect
same,cell toxicity,[1],without exhibiting a significant cell toxicity
